Measurements reported in patent US5663295A, “Opioid peptides” (Biomeasure Inc., priority 1994, dated 1997).

Legend:
[1] = target: μ receptor; experiment: In vitro receptor binding, μ receptor, radioligand DAGO; set-up: species or system guinea-pig or rat; conditions: forebrain membranes, 25° C., 60 min
Procedure: (§1) The following procedure was used to determine the ability of various opioid peptides to inhibit binding at opioid receptors. Crude membranes were prepared by homogenization of guinea-pig or rat forebrain samples in 20 ml of ice-cold 50 mM Tris-HCl with a Brinkman Polytron (setting 6, 15 sec.). Buffer was added to obtain a final volume of 40 ml, and the homogenate centrifuged in a Sorval SS-34 rotor at 39,000 g for 10 min. at 0°-4° C. The resulting supernatant was decanted and discarded. The pellet was rehomogenized in ice-cold buffer, pre-incubated at 37° C. for 45 min., diluted, and centrifuged as before. The final pellet was resuspended in 50 mM Tris HCl and held on ice for the receptor binding assay.
(§2) Aliquots of the washed membrane preparation (described above) were incubated in 50 mM Tris HCl at a total volume of 2.0 ml at 25° C. with an opioid receptor ligand (see below) and various concentrations of the unlabeled test compounds. Mu and kappa receptor assays were incubated for 60 minutes. […] At the end of the incubation periods, the assays were terminated by rapid filtration though Whatman GF/B glass fiber filters, and the bound radioactivity trapped on the filters counted by liquid scintillation spectrometry. For each of the three receptor subtypes, specific binding was calculated as the total radioligand bound minus that bound in the presence of 1000 nM levallorphan. […]

[2] = target: δ receptor; experiment: In vitro receptor binding, δ receptor, radioligand DPPE; set-up: species or system guinea-pig or rat; conditions: forebrain membranes, 25° C., 40 min
Procedure: as §1, §2

[3] = target: κ receptor; experiment: In vitro receptor binding, κ receptor, radioligand U69,593; set-up: species or system guinea-pig or rat; conditions: forebrain membranes, 25° C., 60 min
Procedure: as §1, §2

[4] = system: Human NSLC A549; experiment: Subcutaneous tumor assay, human non-small cell lung cancer A549 xenografts; format: in vivo, athymic nude mice
Procedure: Table 5 compares the antitumor activity of an opioid BIM-38009 versus methadone. A subcutaneous tumor assay was used in which xenografts of the human non-small cell lung cancer were implanted s.c. in athymic nude mice. Test compounds were administered s.c. or i.p., twice daily, from day 4 post tumor implantation to day 35. The results are reported as means±s.e.m. on 8 animals per group. For structure of BIM-38009, see above.

| Compound | Ki [1] | Ki [2] | Ki [3] | Tumor Weight (mg) (Day 34) ([4]; A549 xenograft s.c., treatment days 4-35, mean ± s.e.m., 8 animals per group) | & T/C ([4]; A549 xenograft, tumor weight Day 34, treated versus control) |
| --- | --- | --- | --- | --- | --- |
| C[C@@H](NC(=O)[C@@H](N)Cc1ccc(O)cc1)C(=O)NCC(=O)N[C@@H](CCc1ccccc1)C(N)=O [BIM-38046, tyrosyl-D-alanyl-glycyl-homophenylalanine amide] | 0.00292 ± 0.00112 µM | 0.0727 µM | 0.849 µM | – | – |
| CCC(=O)C(CC(C)N(C)C)(c1ccccc1)c1ccccc1 (centres unmarked) [Methadone] | – | – | – | 337 ± 57 mg | 110 |
